Source: patent US8153689B2, “Pleuromutilin derivatives for the treatment of diseases mediated by microbes” (Nabriva Therapeutics AG, priority 2007, dated 2012)

Test system: primary human hepatocytes
Test: Metabolic stability in cryopreserved primary human hepatocytes
Type: in vitro ADME
Conditions: 4 h incubation with human hepatocytes, compound concentration 5 μg/mL, 37° C., LC/MS
Procedure: The metabolic stability for compounds of the present invention was determined by using cryopreserved primary human hepatocytes. 1×10^6 cells/mL were incubated in the absence and the presence of 5 and 25 μg/mL of the test compounds at 37° C., 5% CO2 for 4 hours. To evaluate the in vitro degradation under assay conditions, a sample of each test compound was incubated also in the absence of hepatocytes. The incubation was stopped by freezing the reaction mixture. After ultrafiltration and washing of the filter with acetonitrile, the sample solution was analyzed for parent compound disappearance or metabolite appearance using LC/MS (ion trap). The metabolic stability value corresponds to the detected parent compound in % after incubation.

Compound	metabolic stability value: detected parent compound in % after incubation [%]
14-O-{[(1R, 3R)-3-Amino-cyclohexylsulfanyl]-acetyl}-mutilin hydrochloride and the (1S, 3S)diastereomer hydrochloride thereof	24
C=CC1(C)CC(OC(=O)CSC2CC(N)CCC2O)C2(C)C(C)CCC3(CCC(=O)C32)C(C)C1O.Cl (mixture of isomers) [Example 2, 14-O-{[(1R, 2R, 5S)-5-Amino-2-hydroxy-cyclohexylsulfanyl]-acetyl}-mutilin hydrochloride+(1S, 2S, 5R)diastereomer hydrochloride]	66
